{"source": "patent US10688099B2", "about": "“Methods for modulating the amount of RNA transcripts” (PTC Therapeutics, Inc., priority 2013, dated 2020)", "system": "RNA isoforms in PNN 1-46 SMA type I patient-derived fibroblasts", "assay": "RNA Abundance Modulation (RNA isoform abundance, iFPM, HiSeq RNA sequencing)", "assay_type": "cell-based, human", "conditions": "3 μM", "method": "Cells from a cell line of interest are cultured in conditions sufficient to yield the number of cells capable of generating enough RNA for subsequent sequencing steps. Cells from the tested cell line are contacted with a compound described herein.\nTo culture said cells, they are seeded, at appropriate concentrations in a volume of media in a cell culture container and incubated for 4, 5, 6, 7, 8, 9, 10, or more hours. A concentrated solution of compound in a vehicle (e.g., DMSO) is then added in sufficient volume to result in the intended final concentration of the compound, for example 100 nM, 500 nM, 1 μM, 5 μM, 10 μM, 15 μM, 20 μM, or more. The cells may also be treated with vehicle alone, as a control. A number of replicates of each concentration or control may be made (e.g., 2 replicates). The cells are then incubated at a constant temperature appropriate for cell culture of the particular cell line (e.g., 37° C.) for 6, 12, 18, 24, 48, or more hours. After incubation, the growth medium is removed and the cells are washed with the appropriate buffer (e.g., PBS). Cells are then removed from adherence to the cell culture container by treatment with a solution containing trypsin, and the trypsin subsequently quenched with the appropriate volume of buffer (e.g., DMEM-FBS). The cells are then pelleted with gentle centrifugation (e.g., ≤90×g centrifugal force) and resuspended in a buffer to lyse the cells for extraction of RNA. The cell lysates may then be frozen (e.g., at −80° C.) or, alternately, may immediately be used in a procedure to purify the RNA (e.g. by use of the RNEASY PLUS® minikit). The RNA from cell lysates is eluted in the appropriate volume of buffer (e.g., RNEASE-FREE H2O®). The resulting purified RNA may then be sequenced (e.g., using RNASeq) or analyzed using a human exon array (e.g., by GENECHIP® human exon array) to determine changes in the RNA levels in those cells treated with compound compared to those cells treated only with DMSO. The purified RNA may also be quantified by other methods known in the art.\nUsing the RNA data obtained from sequencing, exon array, or other methods, a statistical analysis can reveal changes in the RNA levels of compound-treated compared with control. For example, t-test p-values may be calculated for the data obtained through sequencing and exon array methods in order to compare compound-treated cells to those treated with the DMSO control. […] Analysis of the sequencing and exon array data may then also yield predictions about the cause of the aberrant amount of an RNA transcript in the cells (e.g., perturbation of RNA splicing, RNA transcription, or RNA stability). These predictions may be further confirmed by methods known in the art. For example, RT-PCR and RT-qPCR may be used to confirm the change in amount of RNA transcripts for one or more particular transcripts of interest.\nFollowing the methods described above in Example 1, PNN 1-46 SMA type I patient-derived fibroblasts were treated with 300 nM or 3 μM Compounds 774 and 808 in 0.5% DMSO.\n700,000 cells were seeded in 10 mL of medium (DMEM plus 10% FBS) in a T-75 flask. Cells were allowed to attach for at least 4 hrs, after which 50 μL of a 200× compound solution (100% DMSO) was added to each well, and the plate was incubated at 37° C. for 24 hrs.\nAt the end of the incubation period, the supernatant was removed and the cells where washed with PBS. TrypLE (Invitrogen) express solution was added (e.g. 1.5 mL per one T75 flask). The flasks were incubated for 3 to 5 min at 37° C. The trypsin was then quenched, e.g., by adding 10 mL DMEM-FBS.\nNext, the cells were pelleted using gentle centrifugation without exceeding 90×g centrifugal force. The supernatant was removed and the cell pellet was re-suspended in 600 μL RLT buffer (the RLT buffer was supplemented with beta-mercaptoethanol according to the RNeasy protocol manual) by pipetting up and down until the pellet was completely dissolved […]", "data": [{"smiles": "CCc1nc(C)cn2nc(-c3cc(=O)n4cc(C5CCN(C)CC5)cc(C)c4n3)cc12", "note": "[Compound 774]", "values": [{"measurement": "L2FC (x + 1)", "setting": "TIMP2 AK294290", "value": "−6.520"}, {"measurement": "L2abs (Cpd-DMSO)", "setting": "TIMP2 AK294290", "value": 6.50}, {"measurement": "abs (Cpd-DMSO)", "setting": "TIMP2 AK294290", "value": 91, "unit": "iFPM"}, {"measurement": "amp FC (x + 1)", "setting": "TIMP2 AK294290", "value": 91.79}, {"measurement": "ave Cpd", "setting": "TIMP2 AK294290", "value": 0, "unit": "iFPM"}, {"measurement": "FC (x + 1)", "setting": "TIMP2 BC039613", "value": 0.9284}, {"measurement": "L2FC (x + 1)", "setting": "TIMP2 BC039613", "value": "−0.107"}, {"measurement": "L2abs (Cpd-DMSO)", "setting": "TIMP2 BC039613", "value": 11.17}, {"measurement": "abs (Cpd-DMSO)", "setting": "TIMP2 BC039613", "value": 2306, "unit": "iFPM"}, {"measurement": "amp FC (x + 1)", "setting": "TIMP2 BC039613", "value": 1.08}, {"measurement": "ave Cpd", "setting": "TIMP2 BC039613", "value": 29887, "unit": "iFPM"}, {"measurement": "FC (x + 1)", "setting": "TIMP2 NM_003255", "value": 0.9585}, {"measurement": "L2FC (x + 1)", "setting": "TIMP2 NM_003255", "value": "−0.061"}, {"measurement": "L2abs (Cpd-DMSO)", "setting": "TIMP2 NM_003255", "value": 9.77}, {"measurement": "abs (Cpd-DMSO)", "setting": "TIMP2 NM_003255", "value": 876, "unit": "iFPM"}, {"measurement": "amp FC (x + 1)", "setting": "TIMP2 NM_003255", "value": 1.04}, {"measurement": "ave Cpd", "setting": "TIMP2 NM_003255", "value": 20235, "unit": "iFPM"}, {"measurement": "FC (x + 1)", "setting": "TLK1 AK091975", "value": 0.7110}, {"measurement": "L2FC (x + 1)", "setting": "TLK1 AK091975", "value": "−0.492"}, {"measurement": "L2abs (Cpd-DMSO)", "setting": "TLK1 AK091975", "value": 6.56}, {"measurement": "abs (Cpd-DMSO)", "setting": "TLK1 AK091975", "value": 95, "unit": "iFPM"}, {"measurement": "amp FC (x + 1)", "setting": "TLK1 AK091975", "value": 1.41}, {"measurement": "ave Cpd", "setting": "TLK1 AK091975", "value": 232, "unit": "iFPM"}, {"measurement": "FC (x + 1)", "setting": "TLK1 BX537631", "value": 1.2332}, {"measurement": "L2FC (x + 1)", "setting": "TLK1 BX537631", "value": 0.302}, {"measurement": "L2abs (Cpd-DMSO)", "setting": "TLK1 BX537631", "value": 0.14}, {"measurement": "abs (Cpd-DMSO)", "setting": "TLK1 BX537631", "value": 1, "unit": "iFPM"}, {"measurement": "amp FC (x + 1)", "setting": "TLK1 BX537631", "value": 1.23}, {"measurement": "ave Cpd", "setting": "TLK1 BX537631", "value": 5, "unit": "iFPM"}, {"measurement": "FC (x + 1)", "setting": "TLK1 E09283", "value": 1.1041}, {"measurement": "L2FC (x + 1)", "setting": "TLK1 E09283", "value": 0.143}, {"measurement": "L2abs (Cpd-DMSO)", "setting": "TLK1 E09283", "value": 1.54}, {"measurement": "abs (Cpd-DMSO)", "setting": "TLK1 E09283", "value": 3, "unit": "iFPM"}, {"measurement": "amp FC (x + 1)", "setting": "TLK1 E09283", "value": 1.10}, {"measurement": "ave Cpd", "setting": "TLK1 E09283", "value": 30, "unit": "iFPM"}, {"measurement": "FC (x + 1)", "setting": "TLK1 NM_012290", "value": 1.4535}, {"measurement": "L2FC (x + 1)", "setting": "TLK1 NM_012290", "value": 0.540}, {"measurement": "L2abs (Cpd-DMSO)", "setting": "TLK1 NM_012290", "value": 8.52}, {"measurement": "abs (Cpd-DMSO)", "setting": "TLK1 NM_012290", "value": 367, "unit": "iFPM"}, {"measurement": "amp FC (x + 1)", "setting": "TLK1 NM_012290", "value": 1.45}, {"measurement": "ave Cpd", "setting": "TLK1 NM_012290", "value": 1174, "unit": "iFPM"}, {"measurement": "FC (x + 1)", "setting": "TLK1 NM_001136554", "value": 0.3744}, {"measurement": "L2FC (x + 1)", "setting": "TLK1 NM_001136554", "value": "−1.417"}, {"measurement": "L2abs (Cpd-DMSO)", "setting": "TLK1 NM_001136554", "value": 8.77}, {"measurement": "abs (Cpd-DMSO)", "setting": "TLK1 NM_001136554", "value": 437, "unit": "iFPM"}, {"measurement": "amp FC (x + 1)", "setting": "TLK1 NM_001136554", "value": 2.67}, {"measurement": "ave Cpd", "setting": "TLK1 NM_001136554", "value": 260, "unit": "iFPM"}, {"measurement": "FC (x + 1)", "setting": "TLK1 NM_001136555", "value": 4.0350}, {"measurement": "L2FC (x + 1)", "setting": "TLK1 NM_001136555", "value": 2.013}, {"measurement": "L2abs (Cpd-DMSO)", "setting": "TLK1 NM_001136555", "value": 6.40}, {"measurement": "abs (Cpd-DMSO)", "setting": "TLK1 NM_001136555", "value": 84, "unit": "iFPM"}, {"measurement": "amp FC (x + 1)", "setting": "TLK1 NM_001136555", "value": 4.04}, {"measurement": "ave Cpd", "setting": "TLK1 NM_001136555", "value": 111, "unit": "iFPM"}, {"measurement": "FC (x + 1)", "setting": "TMEM154 NM_152680", "value": 2.2609}, {"measurement": "L2FC (x + 1)", "setting": "TMEM154 NM_152680", "value": 1.177}, {"measurement": "L2abs (Cpd-DMSO)", "setting": "TMEM154 NM_152680", "value": 8.26}, {"measurement": "abs (Cpd-DMSO)", "setting": "TMEM154 NM_152680", "value": 306, "unit": "iFPM"}, {"measurement": "amp FC (x + 1)", "setting": "TMEM154 NM_152680", "value": 2.26}, {"measurement": "ave Cpd", "setting": "TMEM154 NM_152680", "value": 548, "unit": "iFPM"}, {"measurement": "FC (x + 1)", "setting": "TNS3 NM_022748", "value": 0.1472}, {"measurement": "L2FC (x + 1)", "setting": "TNS3 NM_022748", "value": "−2.764"}, {"measurement": "L2abs (Cpd-DMSO)", "setting": "TNS3 NM_022748", "value": 9.92}, {"measurement": "abs (Cpd-DMSO)", "setting": "TNS3 NM_022748", "value": 971, "unit": "iFPM"}, {"measurement": "amp FC (x + 1)", "setting": "TNS3 NM_022748", "value": 6.79}, {"measurement": "ave Cpd", "setting": "TNS3 NM_022748", "value": 167, "unit": "iFPM"}, {"measurement": "FC (x + 1)", "setting": "TOMM5 CCDS47968", "value": 0.9090}, {"measurement": "L2FC (x + 1)", "setting": "TOMM5 CCDS47968", "value": "−0.138"}, {"measurement": "L2abs (Cpd-DMSO)", "setting": "TOMM5 CCDS47968", "value": "−2.28"}, {"measurement": "abs (Cpd-DMSO)", "setting": "TOMM5 CCDS47968", "value": 0, "unit": "iFPM"}, {"measurement": "amp FC (x + 1)", "setting": "TOMM5 CCDS47968", "value": 1.10}, {"measurement": "ave Cpd", "setting": "TOMM5 CCDS47968", "value": 1, "unit": "iFPM"}, {"measurement": "FC (x + 1)", "setting": "TOMM5 CR627326", "value": 0.4244}, {"measurement": "L2FC (x + 1)", "setting": "TOMM5 CR627326", "value": "−1.236"}, {"measurement": "L2abs (Cpd-DMSO)", "setting": "TOMM5 CR627326", "value": 2.64}, {"measurement": "abs (Cpd-DMSO)", "setting": "TOMM5 CR627326", "value": 6, "unit": "iFPM"}]}]}
